Measurements reported in ChEMBL document CHEMBL4483862, “Open-source discovery of chemical leads for next-generation chemoprotective antimalarials” (2018).
pIC50: −log10 of the molar value.

Test system: Plasmodium berghei
Experiment: Luciferase/luciferin-expressing antifolate-resistant parasites were used to infect a culture of HepG2 cells that were pre-incubated with compounds. Infected hepatocytes emit light due to the luciferase reaction. Assay results are presented as the percent inhibition of light emission compared to control. […]
Format: functional
Details: sporozoite; for IC90: read-out: LUCIFERASE INFECTION ASSAY - IC90

| Compound | IC90 [µM] | other results |
| --- | --- | --- |
| CC(=O)Nc1cccc(-c2ccnc3c2CC(C)(C(=O)NCc2cccc(Cl)c2)O3)c1 (stereo unspecified) | > 7.57 | pIC50 (FFLUC_HILL_SLOPE 12.6, FFLUC_R_SQUARED 0.486, HEPG2TOX_HILL_SLOPE 12, HEPG2TOX_R_SQUARED 0.561, PBLUC_HILL_SLOPE 2.25, PBLUC_R_SQUARED 0.29, read-out: LUCIFERASE INFECTION ASSAY - IC50): 5.38 |
| CC(C)(C)c1cc(C(=O)NNC(=S)Nc2ccccc2)n(Cc2ccc(Cl)cc2Cl)n1 | 4.51 | pIC50 (FFLUC_HILL_SLOPE 12.6, FFLUC_R_SQUARED 0.389, HEPG2TOX_HILL_SLOPE 2.18, HEPG2TOX_R_SQUARED 0.945, PBLUC_HILL_SLOPE 8.72, PBLUC_R_SQUARED 0.517, read-out: LUCIFERASE INFECTION ASSAY - IC50): 5.45 |
| COc1cccc(N2C(C)=CC(=C(C#N)c3nc4ccccc4s3)C=C2C)c1 | > 10 | pIC50 (FFLUC_HILL_SLOPE 12.5, FFLUC_R_SQUARED 0.607, HEPG2TOX_HILL_SLOPE 3.97, HEPG2TOX_R_SQUARED 0.941, PBLUC_HILL_SLOPE 8.86, PBLUC_R_SQUARED 0.0114, read-out: LUCIFERASE INFECTION ASSAY - IC50): < 5.00 |
| CC(C(=O)Nc1ccc(S(=O)(=O)N2CCCC2)cc1)N1CCC(CCc2ccc(O)cc2)CC1 (stereo unspecified) | > 10 | pIC50 (FFLUC_HILL_SLOPE 12.4, FFLUC_R_SQUARED 0.343, PBLUC_HILL_SLOPE 0.669, PBLUC_R_SQUARED 0.407, read-out: LUCIFERASE INFECTION ASSAY - IC50): < 5.00 |
| CC1CCN(/C(=N/S(=O)(=O)c2ccc(-n3nc(C(F)(F)F)cc3-c3cccs3)cc2)N/N=C/c2ccc(Cl)cc2)CC1 | > 5.2 | pIC50 (FFLUC_HILL_SLOPE 12.3, FFLUC_R_SQUARED 0.48, read-out: LUCIFERASE INFECTION ASSAY - IC50): < 5.28 |
| COc1ccccc1-c1cc2c(Nc3ccc(OC(F)(F)F)cc3)nccc2n1C | 8.42 | pIC50 (FFLUC_HILL_SLOPE 12.5, FFLUC_R_SQUARED 0.343, HEPG2TOX_HILL_SLOPE 2.16, HEPG2TOX_R_SQUARED 0.708, PBLUC_HILL_SLOPE 2.92, PBLUC_R_SQUARED 0.46, read-out: LUCIFERASE INFECTION ASSAY - IC50): 5.40 |
| O=c1c2ccccc2c(=O)c2oc3cc4oc5c(=O)c6ccccc6c(=O)c5[nH]c4cc3[nH]c12 | 4 | pIC50 (FFLUC_HILL_SLOPE 12.7, FFLUC_R_SQUARED 0.208, HEPG2TOX_HILL_SLOPE 4.53, HEPG2TOX_R_SQUARED 0.902, PBLUC_HILL_SLOPE 7.46, PBLUC_R_SQUARED 0.34, read-out: LUCIFERASE INFECTION ASSAY - IC50): 5.53 |
| CC1CC(C)CN(Cc2nc(=O)c3c(-c4ccc(Cl)cc4)csc3[nH]2)C1 (stereo unspecified) | 6.66 | pIC50 (FFLUC_HILL_SLOPE 12.3, FFLUC_R_SQUARED 0.735, PBLUC_HILL_SLOPE 4.47, PBLUC_R_SQUARED 0.339, read-out: LUCIFERASE INFECTION ASSAY - IC50): 5.39 |
| Cc1ccc(C)c(-n2cc(-c3ccc(Cl)cc3)nc2SCC(=O)c2ccc(Cl)c(Cl)c2)c1 | > 10 | pIC50 (FFLUC_HILL_SLOPE 12.4, FFLUC_R_SQUARED 0.889, HEPG2TOX_HILL_SLOPE 8.6, HEPG2TOX_R_SQUARED 0.032, read-out: LUCIFERASE INFECTION ASSAY - IC50): < 5.00 |
| Fc1ccc(CNc2ccc3ncc(Br)n3n2)cc1 | > 10.3 | pIC50 (FFLUC_HILL_SLOPE 12.6, FFLUC_R_SQUARED 0.212, PBLUC_HILL_SLOPE 1.62, PBLUC_R_SQUARED 0.732, read-out: LUCIFERASE INFECTION ASSAY - IC50): 5.28 |
| CCCn1nc(C(=O)Nc2ccccc2Cc2ccccc2)c2ccccc2c1=O | > 10 | pIC50 (FFLUC_HILL_SLOPE 12.7, FFLUC_R_SQUARED 0.0456, HEPG2TOX_HILL_SLOPE 0.0305, HEPG2TOX_R_SQUARED 0.0383, read-out: LUCIFERASE INFECTION ASSAY - IC50): < 5.00 |
| O=C(c1cc(C(=O)N2CCCC2)c2nc3scc(-c4ccccc4)c3c(=O)n2c1)c1cc(F)ccc1O | > 10 | pIC50 (FFLUC_HILL_SLOPE 12.4, FFLUC_R_SQUARED 0.51, HEPG2TOX_HILL_SLOPE 7.25, HEPG2TOX_R_SQUARED 0.253, PBLUC_HILL_SLOPE 65.5, PBLUC_R_SQUARED 0.659, read-out: LUCIFERASE INFECTION ASSAY - IC50): 5.01 |
| CCc1cccc(CC)c1N1C(=O)C=CC1=O | 5.85 | pIC50 (FFLUC_HILL_SLOPE 12.6, FFLUC_R_SQUARED 0.68, HEPG2TOX_HILL_SLOPE 16.7, HEPG2TOX_R_SQUARED 0.936, PBLUC_HILL_SLOPE 11.7, PBLUC_R_SQUARED 0.538, read-out: LUCIFERASE INFECTION ASSAY - IC50): 5.31 |
| CCCCNC(=O)c1c(NC(=O)C(CC)c2ccccc2)nc2ccc(C)cn12 (stereo unspecified) | > 8.41 | pIC50 (FFLUC_HILL_SLOPE 12.5, FFLUC_R_SQUARED 0.645, PBLUC_HILL_SLOPE 0.242, PBLUC_R_SQUARED 0.0523, read-out: LUCIFERASE INFECTION ASSAY - IC50): < 5.08 |
| O=C1C(=Nc2ccc(O)cc2)C=C(NS(=O)(=O)c2cccs2)c2ccccc21 | 3.54 | pIC50 (FFLUC_HILL_SLOPE 12.7, FFLUC_R_SQUARED 0.111, HEPG2TOX_HILL_SLOPE 2.05, HEPG2TOX_R_SQUARED 0.969, PBLUC_HILL_SLOPE 9.12, PBLUC_R_SQUARED 0.459, read-out: LUCIFERASE INFECTION ASSAY - IC50): 5.56 |
| Cc1ccc(-n2c(SCC(=O)N3CCC(C)Sc4ccccc43)nnc2-c2ccccc2)cc1C (stereo unspecified) | > 10 | pIC50 (FFLUC_HILL_SLOPE 12.3, FFLUC_R_SQUARED 0.54, HEPG2TOX_HILL_SLOPE 7.7, HEPG2TOX_R_SQUARED 0.421, PBLUC_HILL_SLOPE 3.98, PBLUC_R_SQUARED 0.233, read-out: LUCIFERASE INFECTION ASSAY - IC50): 5.21 |
| CSc1sc(C(=O)NC(=O)Nc2cccc(C(F)(F)F)c2)cc1C#N | > 8.56 | pIC50 (FFLUC_HILL_SLOPE 12.6, FFLUC_R_SQUARED 0.0423, read-out: LUCIFERASE INFECTION ASSAY - IC50): < 5.07 |
| Clc1ccc(/N=C/c2c(Sc3ccc(Cl)cc3)nc3sccn23)cc1 | 5.29 | pIC50 (FFLUC_HILL_SLOPE 12.3, FFLUC_R_SQUARED 0.518, HEPG2TOX_HILL_SLOPE 2.77, HEPG2TOX_R_SQUARED 0.964, PBLUC_HILL_SLOPE 5.31, PBLUC_R_SQUARED 0.509, read-out: LUCIFERASE INFECTION ASSAY - IC50): 5.46 |
| Cc1c(Sc2ccccc2[N+](=O)[O-])c2ccccn2c1C(=O)c1ccc(Br)cc1 | > 10 | pIC50 (FFLUC_HILL_SLOPE 12.7, FFLUC_R_SQUARED 0.226, PBLUC_HILL_SLOPE 11.1, PBLUC_R_SQUARED 0.312, read-out: LUCIFERASE INFECTION ASSAY - IC50): 5.01 |
| Cc1c(C(=O)OC(C)C(=O)Nc2ccc(F)cc2Cl)sc2nc3n(c(=O)c12)CCC3 (stereo unspecified) | > 10 | pIC50 (FFLUC_HILL_SLOPE 12.5, FFLUC_R_SQUARED 0.0754, PBLUC_HILL_SLOPE 2.35, PBLUC_R_SQUARED 0.872, read-out: LUCIFERASE INFECTION ASSAY - IC50): 5.27 |
| CC(CCc1ccccc1)NC(=O)Cn1c(=O)c(=O)n(Cc2ccccc2)c2ccc(Cl)cc21 (stereo unspecified) | > 10 | pIC50 (FFLUC_HILL_SLOPE 12.6, FFLUC_R_SQUARED 0.716, read-out: LUCIFERASE INFECTION ASSAY - IC50): < 5.00 |
| OCc1ccc(-c2cnc3ccc(-c4cccc(Cl)c4)nn23)cc1 | 3.31 | pIC50 (FFLUC_HILL_SLOPE 12.3, FFLUC_R_SQUARED 0.916, HEPG2TOX_HILL_SLOPE 9.11, HEPG2TOX_R_SQUARED 0.904, PBLUC_HILL_SLOPE 1.55, PBLUC_R_SQUARED 0.705, read-out: LUCIFERASE INFECTION ASSAY - IC50): 6.10 |
| O=C(NNC(=S)Nc1ccc(Cl)c(Cl)c1)c1cccn1-c1ccc(F)cc1 | 5.78 | pIC50 (FFLUC_HILL_SLOPE 12.7, FFLUC_R_SQUARED 0.0579, HEPG2TOX_HILL_SLOPE 1.8, HEPG2TOX_R_SQUARED 0.871, PBLUC_HILL_SLOPE 2.85, PBLUC_R_SQUARED 0.299, read-out: LUCIFERASE INFECTION ASSAY - IC50): 5.57 |
| O=C(Nc1nc2ccccn2c1C(=O)NC1CCCCC1)c1ccccc1 | 3.28 | pIC50 (FFLUC_HILL_SLOPE 12.3, FFLUC_R_SQUARED 0.522, HEPG2TOX_HILL_SLOPE 1.9, HEPG2TOX_R_SQUARED 0.962, PBLUC_HILL_SLOPE 15.5, PBLUC_R_SQUARED 0.368, read-out: LUCIFERASE INFECTION ASSAY - IC50): 5.55 |
| CCSc1ncc(-c2nnnn2-c2ccccc2)c(-c2ccccc2)n1 | > 9.16 | pIC50 (FFLUC_HILL_SLOPE 12.6, FFLUC_R_SQUARED 0.17, read-out: LUCIFERASE INFECTION ASSAY - IC50): < 5.04 |
| Cc1ccc(C2(c3ccccc3)NC(=O)N(CC(=O)c3cccs3)C2=O)cc1C (stereo unspecified) | 6.65 | pIC50 (FFLUC_HILL_SLOPE 12.5, FFLUC_R_SQUARED 0.056, HEPG2TOX_HILL_SLOPE 0.321, HEPG2TOX_R_SQUARED 0.0152, PBLUC_HILL_SLOPE 3.37, 16.8, PBLUC_R_SQUARED 0.316, 0.669, read-out: LUCIFERASE INFECTION ASSAY - IC50): 5.39 |
| N#Cc1c(-c2ccccc2)c(-c2ccccc2)n(C2CCCCC2)c1NC(=O)CCN1C(=O)c2ccccc2C1=O | > 10 | pIC50 (FFLUC_HILL_SLOPE 12.4, FFLUC_R_SQUARED 0.654, read-out: LUCIFERASE INFECTION ASSAY - IC50): < 5.00 |
| Oc1c(C(c2ccc(C(F)(F)F)cc2)N2CCCC2)cc(Cl)c2cccnc12 (stereo unspecified) | 2.26 | pIC50 (FFLUC_HILL_SLOPE 12.3, FFLUC_R_SQUARED 0.824, HEPG2TOX_HILL_SLOPE 1.2, HEPG2TOX_R_SQUARED 0.387, PBLUC_HILL_SLOPE 2.74, PBLUC_R_SQUARED 0.879, read-out: LUCIFERASE INFECTION ASSAY - IC50): 6.00 |
